Where two headings read alike, the source gives them in different places.
How the values were obtained:
[1] = cited from earlier work
neuraminidase = conditions: more potent; cited from earlier work
Caco-2 cell monolayers = assay: Unidirectional (A-to-B) permeability of zanamivir across Caco-2 cell monolayers with and without excipients; format: in vitro ADME; conditions: initial screening, glycerol and Capmul MCM L8, results not shown
Experimental: Caco-2 cells were obtained from American Type Culture Collection (Rockville, MD). Stock cultures were maintained in flasks with DMEM medium supplemented with 10% FBS, 1% non-essential amino acids, 1 mmol/L sodium pyruvate, 100 IU/mL penicillin, and 100 µg/mL streptomycin in a humidified incubator (37°C, 5% CO2). Cells were harvested by trypsinization and seeded at 60,000 cells/cm^2 onto Costar Transwell® 12-well dual-chamber plates with collagen-coated, microporous polycarbonate membranes (1.13 cm^2 insert area, 0.4 µm pore size; Corning Life Sciences, Acton, MA) for permeability studies. The culture medium was changed three times per week.
Caco-2 cell monolayers that had grown for at least 20 days were subjected to batch quality control testing in which permeation rates were measured for atenolol, digoxin, estrone-3-sulfate, lucifer yellow (LY), and propranolol. In addition, the transepithelial electrical resistance (TEER) across each experimental monolayer was tested prior to an experiment.
Unidirectional (A-to-B) permeability of zanamivir was determined at 15 µg/mL in the absence and presence of varying concentrations of excipients in Caco-2 cell monolayers. The assay buffer was Hanks' balanced salt solution (HBSS) supplemented with 10 mM 4-(2-hydroxyethyl)-1-piperazineethanesulfonic acid (HEPES) and 15 mM D-glucose (HBSSg), pH 7.4. The dosing solutions on the apical side (0.5 mL) contained either zanamivir and excipients at each concentration being tested or zanamivir only (n = 4), while the receiver buffer in the bottom well (1.5 mL) was always excipient-free. The Caco-2 cell monolayers were incubated for 120 min in a humidified incubator (37°C, 5% CO2) after dosing in the apical chambers. Aliquots (200 µL each) of receiver buffer were sampled at 60 min, 90 min, and 120 min after dosing, with replacement by the same volume of blank buffer (at 60 min and 90 min). Donors were sampled at 0 and 120 min.
Experimental samples were identically treated.

Row | SMILES | Oral bioavailability [1] | Oral bioavailability ([1]; in vivo, po) | Absolute bioavailability ([1]; in vivo) | other results
1 | CO[C@@H]([C@@H]1OC(C(=O)O)=C[C@H](NC(=N)N)[C@H]1NC(C)=O)[C@H](O)CO [laninamivir] | under 2% |  |  | 
2 | CCOC(=O)C1=CC(OC(CC)CC)C(NC(C)=O)C(NC(=N)N)C1 (stereo not shown) [GL4116 ethyl ester] |  | under 5% |  | 
3 | CCC(CC)OC1C=C(C(=O)O)CC(NC(=N)N)C1NC(C)=O (stereo not shown) [GS4116 carboxylate] |  | under 5% |  | Inhibitor potency relative to oseltamivir carboxylate (neuraminidase): 10 fold
4 | CCOC(=O)C1=C[C@@H](OC(CC)CC)[C@H](NC(C)=O)[C@@H](N)C1 [oseltamivir] |  | at least 35% | ≥ 35% | 
5 | CCC(CC)[C@H](NC(C)=O)[C@@H]1[C@H](O)[C@@H](C(=O)O)C[C@H]1N=C(N)N [peramivir] | under 2% |  |  | Drug transport across Caco-2 cell monolayers with enhancers (Caco-2 cell monolayers): substantially increased drug transport
6 | CCC(CC)O[C@@H]1C=C(C(=O)O)C[C@H](N)[C@H]1NC(C)=O [oseltamivir carboxylate] |  | 2% | under 5% | 

From article PMC3629230, “Permeability Enhancers Dramatically Increase Zanamivir Absolute Bioavailability in Rats: Implications for an Orally Bioavailable Influenza Treatment” (PLoS ONE, 2013)
